Measured values from patent US20090291928A1, “COMPOSITION FOR AMELIORATION/PREVENTION OF ADVERSE SIDE EFFECT IN STEROID THERAPY” (AJINOMOTO CO., INC., priority 2006, published 2009).

Tested on: dexamethasone administered rat
Assay: Muscular atrophy prophylactic effect of BCAA in dexamethasone administered rat (Example 1)
Format: in vivo
Settings: effect of dexamethasone administration itself, 600 μg/kg i.p. 5 days
Protocol: Dexamethasone (600 μg/kg) was intraperitoneally administered to rats (SD; 10-11-week-old) for 5 consecutive days. An isoleucine, leucine and valine (weight ratio 1:2:1.2) blend (BCAA) administration group was orally administered with 0.75 g/kg of BCAA above simultaneously for 5 consecutive days. A vehicle group was orally administered with distilled water consecutively in the same manner.
On day 5, the rats were autopsied and analyzed for muscular strength function evaluation, blood glucose level and plasma insulin level using a feed intake, body weight profile, muscle weight, grip strength measurement apparatus.
As the control group, pair-feeding normal rats were used.

blood glucose level (SD rats (FIG. 4)): increased | insulin level (SD rats (FIG. 5)): increased
SMILES: C[C@@H]1C[C@H]2[C@@H]3CCC4=CC(=O)C=C[C@]4(C)[C@@]3(F)[C@@H](O)C[C@]2(C)[C@@]1(O)C(=O)CO [dexamethasone]
